Source: patent publication US20230313313A1, “BIOMARKERS FOR CANCER THERAPY USING MDM2 ANTAGONISTS” (OTSUKA PHARMACEUTICAL CO., LTD., priority 2020, published 2023)
“Also recorded” adds a separate entry of the source.

Legend:
AML cell lines = assay: Activated caspase-3 by cytometry in AML cell lines; format: cell-based, human
Method: Levels of Compound 1-induced apoptosis were measured as percentage of cells with activated caspase-3. […] The extent of Compound 1-induced apoptosis is not predicted from the IC50 values obtained from the Alamar Blue proliferation assays, thus emphasising the impact of grouping cell lines specifically based on their apoptotic potential for subsequent analyses described in the following section.
Activated Caspase-3 by Cytometry
The cell lines were plated out in 6-well plates at 0.5×10^6 cells/ml (2 ml/well) the day before treatment and allowed to recover overnight in a humidified 5% CO2/air incubator at 37° C. […] 200 μl of each sample was added to duplicate wells of a 96-well plate. To one of the two wells, 50 μl of serum-free medium was added as an unstained control. […] The plate was incubated in the dark for 30 minutes before measuring fluorescent stained cells in a Guava EasyCyte HT cytometer (Merck Millipore, Kenilworth, NJ, USA). Activated caspase-3 staining was recorded in the GRN-B (green) channel, with unstained and DMSO control wells being used to set the gated stained and unstained cell populations—allowing the percentage of cells that are apoptotic to be calculated.

MV4-11 cells [1] = assay: Alamar Blue proliferation assay, MV4-11 overexpressing SKP2 vs control; format: cell-based, human; settings: MV4-11 SKP2 OE compared to control
Method: (§1) Precision LentiORF Transduction:
(§2) Precision LentiORF Lentiviral Transduction Particles (Cat. OHS5900-224629438, Dharmacon, UK) were used to overexpress SKP2 in the MV4-11 AML cell line. Stable gene overexpression was established by cellular resistance to blasticidin (5 μg/ml) and was confirmed at the protein level by western blot. The Precision LentiORF control empty vector (Dharmacon, UK) served as a negative control.
The number of viable cells was determined by Alamar Blue assay (Bio-Rad, Irvine, CA, USA). All cell lines were grown and assayed in RPMI-1640+10% FBS medium.
Compounds were diluted first in DMSO and then into serum-free medium, before addition to triplicate wells of the cultured cells to give a 0.1% DMSO final concentration. […] Twenty μl of Alamar Blue™ (AbD Serotec/Bio-Rad) was added to each well and plates were then incubated for 4-6 h at 37° C. in an atmosphere of 5% CO2 and air. Plates were then read at 535 nm (excitation) and 590 nm (emission) on a SpectraMax Gemini reader (Molecular Devices, San Jose, CA, USA).

MV4-11 cells [2] = assay: Apoptosis assay by cytometry, MV4-11 overexpressing SKP2; format: cell-based, human; settings: MV4-11 SKP2 OE, 48-hour treatment with 2 different concentrations
Method: as §1, §2
(§3) Apoptosis Assay by Cytometry
(§4) The cell lines were plated out in 6-well plates at 0.5×10^6 cells/ml (2 ml/well) the day before treatment and allowed to recover overnight in a humidified 5% CO2/air incubator at 37° C. […] Briefly, the cells were resuspended with the Annexin V-binding buffer and stained with Annexin V-conjugate. Samples were incubated for 20 min at room temperature in the dark. After washing with the Annexin V-binding buffer, the cells were analyzed with a flow cytometer.
(§5) For caspase 3/7 staining CellEvent™ Caspase 3/7 Green reagent (Life Technologies), a fluorogenic substrate for activated caspase-3 and -7 was used according to the manufacturer's protocol. The cells were incubated with 5 μM of substrate for 30 min at room temperature and then analyzed with a flow cytometer.

OCI-AML3 AML cell line = assay: Apoptosis after SKP2 knockdown in a non-apoptotic AML cell line; format: cell-based, human
Method: shRNA Lentiviral Transduction:
MISSION® shRNA Lentiviral Transduction Particles (Sigma Aldrich, Pool, UK) were used to knockdown SKP2 in the OCI-AML3 AML cell line. Stable gene knockdown was established by cellular resistance to puromycin (1 μg/ml) and was confirmed at the protein level by western blot.
as §3, §4, §5

MV4-11 cells [3] = assay: In vivo systemic AML mouse model, PCR for circulating human DNA; settings: MV4-11 empty vector (absence of SKP2 overexpression); NSG mice
Method: In addition to assessing the effect of SKP2 overexpression and knockdown in vitro, the impact of SKP2 on cancer proliferation was evaluated in vivo, using a disseminated AML model based on the MV4-11 cell line. To generate a systemic in vivo model of AML, NSG mice were injected in the tail vein with MV4-11 cells engineered to overexpress SKP2 or empty vector. Systemic tumour burden was assessed by PCR for circulating human DNA.
(§6) In Vivo Systemic AML Mouse Model
(§7) Female NSG Mice (6-8 weeks old) were bought from Jackson Laboratories (Bar Harbor, ME). Animals were given an intravenous injection of 5×10^6 MV4-11 cells and tumour engraftment was assessed by PCR for circulating human DNA. Mice were randomized to treatment groups based on systemic tumour burden as detected by PCR. Leukemic burden was then monitored weekly by serial bleeding followed by PCR. Mice were observed daily and euthanized humanely upon signs of terminal illness (hind limb paralysis, inability to eat/drink, moribund lethargy).
PCR for Circulating Human DNA
Blood samples were collected in heparinized capillary tubes and samples were stored at −80° C. until analysis. DNA was extracted using the DNeasy Blood & Tissue Kit (Qiagen, Cat: 69504) and PCR for human DNA was run using TaqMan™ Genotyping Master Mix (ThermoFisherScientific Catalog number: 4371355) using the following primers: […]

[4] = system: MV4-11 tumour cells in the bone marrow; assay: In vivo systemic AML mouse model, bone marrow flow cytometry; set-up: species or system NSG mice; settings: 14 days after treatment
Method: Thus, overexpression of SKP2 is able to turn a sensitive AML cell line into a resistant cell line in vivo, providing evidence that low SKP2 is an important biomarker for sensitivity to MDM2 antagonism.
as §6, §7
Bone Marrow Flow Cytometry
Bone marrow cells were stained with PE-CF594 Anti-Human CD45 (BD 562312), BB515 Anti-Mouse CD45 (BD 564590) and DAPI. The amount of human cells engrafted in the bone marrow is expressed as % of viable mouse CD45+ cells.

[5] = system: acute myeloid leukemia blasts isolated from patients; assay: Primary AML blasts sensitivity, 24 h apoptosis assay (Annexin V/PI); format: cell-based, human; settings: 13 primary AML samples, two concentrations
Method: Low SKP2 expression is a biomarker for sensitivity of AML to MDM2 antagnists in patient-derived samples.
Evaluation of Primary AML Blasts Sensitivity to Compound 1
Primary frozen AML samples were purchased from NBS Biobank (Moscow, Russia). 13 primary AML samples with high blast content (>80%) were cultured in selected expansion media composed by StemSpan SFEM II media (Stemcell, #09605), 1× StemSpan CD34+ expansion supplement (Stemcell, #02691), 2% FBS and 1% Penicillin/Streptomycin.
Evaluation of SKP2 Protein Expression on Primary AML Blasts
Capillary Western analyses were performed using the ProteinSimple Wes System (San Jose, CA, USA). Antibodies used were specific for SKP2 (#4358) and TXN1 (#2429) as loading control. Samples were diluted with 0.1× Sample Buffer. Then 4 parts of diluted sample were combined with 1 part 5× Fluorescent Master Mix (containing 5× sample buffer, 5× fluorescent standard, and 200 mM DTT) and heated at 95° C. for 5 min. After this denaturation step, the prepared samples, blocking reagent, primary antibodies (1:10 dilution for SKP2, 1:100 for TXN1), HRP-conjugated secondary antibodies and chemiluminescent substrate were dispensed into designated wells in an assay plate. A biotinylated ladder provided molecular weight standards for each assay. […]

OCI-AML3 cells = assay: Induction of apoptosis by cleaved caspase-3 cytometry, combination with IAP antagonist; format: cell-based, human; settings: 0.1 μM, 72 h
Method: Cleaved caspase-3 staining was recorded in the FL1 (green) channel, with unstained and DMSO control wells being used to set the gated stained and unstained cell populations—allowing the percentage of cells that are apoptotic to be calculated.

SJSA-1 = assay: Protocol B: SJSA-1 CellTiter-Glo Luminescent Cell Viability Assay; settings: Homo sapiens, SJSA-1, read-out: SJSA1 IC50 (μM) (Protocol B)

CC[C@@](O)(c1cc(F)c2c(c1)C(=O)N([C@H](c1ccc(Cl)cc1)[C@H](C)C(=O)O)[C@@]2(OC)c1ccc(Cl)cc1)C1CCOCC1 [Compound 1, (2S,3S)-3-(4-chlorophenyl)-3-[(1R)-1-(4-chlorophenyl)-7-fluoro-5-[(1S)-1-hydroxy-1-(oxan-4-yl)propyl]-1-methoxy-3-oxo-2,3-dihydro-1H-isoindol-2-yl]-2-methylpropanoic acid]
apoptosis (cells with activated caspase-3) (AML cell lines; HNT-34, OCI-AML3, ML-2, GDM-1 (non-apoptotic), 48-hour treatment with 100 nM): < 30%
cells staining positive for activated caspase-3 (AML cell lines; MV4-11, EOL-1, Molm-13, OCI-AML-2 and BDCM (apoptotic), 48-hour treatment with 100 nM): > 30%
increase in activated caspase-3 (AML cell lines; panel of 12 AML cell lines, negative control KG-1, TP53 mutant): observed in all cell lines except the negative control
effect of SKP2 overexpression on cytotoxicity / sensitivity (MV4-11 cells [1]): reduces Compound 1-induced cytotoxicity; also recorded: resistant
effect of SKP2 overexpression on apoptosis / cell death (MV4-11 cells [2]): reduces Compound 1-dependent cell death; also recorded: strong reduction in apoptosis
effect of SKP2 knockdown on cytotoxicity (OCI-AML3 AML cell line; non-apoptotic AML cell line): increases Compound 1-induced cytotoxicity
increase of apoptosis on SKP2 knockdown compared to control (no SKP2 knockdown) (OCI-AML3 AML cell line; non-apoptotic AML cell line (high basal SKP2), 0.1 μM): about 30%
systemic tumour burden (circulating human DNA) (MV4-11 cells [3]): only low levels of circulating human DNA
bone marrow tumour burden (FACS) ([4]; SKP2 overexpressed): does not reduce the number of leukemic cells; also recorded: no effects
leukemic tumour cells in the bone marrow (FACS) ([4]; absence of SKP2 overexpression): reduces the number of leukemia cells; also recorded: significant decrease
sensitivity of SKP2 low blasts compared with SKP2 high blasts [5]: more sensitive
level of apoptosis (cleaved caspase-3), single agent (OCI-AML3 cells): did not induce a high level of apoptosis
level of apoptosis (cleaved caspase-3), single agent (OCI-AML3 cells; listed as Compund 1): does not induce substantial levels of cell death by apoptosis

[2H]C([2H])(O)C1(C([2H])([2H])O[C@]2(c3ccc(Cl)cc3)c3c(F)cc(C(O)(CC)c4cn(C)cn4)cc3C(=O)N2Cc2ccc(C#N)cn2)CC1 (some centres unmarked) [Example 440]
IC50 (SJSA-1): 1.9 µM
